Experimental data from publication PMC4729137, “Functional analysis of androgen receptor mutations that confer anti-androgen resistance identified in circulating cell-free DNA from prostate cancer patients” (Genome Biology, 2016).
Numbering of substitutions follows the chain as printed.

How the values were obtained:
Test in all cases: cell-based
WT-AR = molecular target: T1, WT-AR (Homo sapiens, UniProt P10275)
T1 sequence (P10275 1-920): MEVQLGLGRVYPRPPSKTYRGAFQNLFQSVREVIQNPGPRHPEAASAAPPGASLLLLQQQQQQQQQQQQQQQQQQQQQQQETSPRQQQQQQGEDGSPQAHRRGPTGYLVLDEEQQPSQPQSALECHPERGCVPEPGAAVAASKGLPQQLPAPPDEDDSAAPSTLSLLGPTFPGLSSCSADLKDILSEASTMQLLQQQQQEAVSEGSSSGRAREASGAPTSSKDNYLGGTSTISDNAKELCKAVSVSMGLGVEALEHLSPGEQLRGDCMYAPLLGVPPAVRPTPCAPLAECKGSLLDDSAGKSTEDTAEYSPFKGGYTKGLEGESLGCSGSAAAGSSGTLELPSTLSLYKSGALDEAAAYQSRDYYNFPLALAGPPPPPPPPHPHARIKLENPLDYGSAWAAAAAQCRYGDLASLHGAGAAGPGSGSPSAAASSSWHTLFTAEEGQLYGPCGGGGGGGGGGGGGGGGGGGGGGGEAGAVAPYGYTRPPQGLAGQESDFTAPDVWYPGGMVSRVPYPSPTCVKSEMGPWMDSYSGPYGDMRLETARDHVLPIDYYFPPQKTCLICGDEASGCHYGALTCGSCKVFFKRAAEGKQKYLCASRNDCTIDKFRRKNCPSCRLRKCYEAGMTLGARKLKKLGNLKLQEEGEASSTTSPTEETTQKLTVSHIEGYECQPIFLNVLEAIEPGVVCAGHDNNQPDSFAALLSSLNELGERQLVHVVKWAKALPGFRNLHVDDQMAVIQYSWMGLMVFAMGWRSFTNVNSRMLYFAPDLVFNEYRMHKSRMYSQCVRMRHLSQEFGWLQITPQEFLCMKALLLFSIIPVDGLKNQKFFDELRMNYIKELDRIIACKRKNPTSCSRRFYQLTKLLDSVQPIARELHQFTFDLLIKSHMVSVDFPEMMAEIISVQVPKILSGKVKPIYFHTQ

D880E-AR = molecular target: T2, D880E-AR (Homo sapiens, UniProt P10275, D880E)
T2 sequence (P10275 1-920 D880E): T1 sequence (P10275 1-920) with D880E

T878A-AR = molecular target: T3, T878A-AR (Homo sapiens, UniProt P10275, T878A)
T3 sequence (P10275 1-920 T878A): T1 sequence (P10275 1-920) with T878A

Measured: EC50

C[C@]12CCC(=O)C=C1CC[C@@H]1[C@@H]2[C@@H](O)C[C@@]2(C)[C@H]1CC[C@]2(O)C(=O)CO [hydrocortisone]
> 500 nM: all assays above
